Results as given in PubChem BioAssay (NCI).
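GI50 marks 50% less growth. TGI is the concentration that stops growth completely.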

Assays:
Assay in all cases: NCI tumour cell line growth inhibition, 384-well format
SF-295 CNS = test system: SF-295 CNS
A498 renal = test system: A498 renal
CAKI-1 renal = test system: CAKI-1 renal
HCC-2998 colon = test system: HCC-2998 colon
UACC-257 melanoma = test system: UACC-257 melanoma
HOP-92 NSCLC = test system: HOP-92 NSCLC
HL-60(TB) leukemia = test system: HL-60(TB) leukemia
PC-3 prostate = test system: PC-3 prostate
RXF 393 renal = test system: RXF 393 renal
NCI-H460 NSCLC = test system: NCI-H460 NSCLC
SR leukemia = test system: SR leukemia
KM12 colon = test system: KM12 colon
SW-620 colon = test system: SW-620 colon

SMILES | GI50 (SF-295 CNS) [µM] | TGI (SF-295 CNS) [µM] | GI50 (A498 renal) [µM] | TGI (A498 renal) [µM] | GI50 (CAKI-1 renal) [µM] | TGI (CAKI-1 renal) [µM] | GI50 (HCC-2998 colon) [µM] | TGI (HCC-2998 colon) [µM] | GI50 (UACC-257 melanoma) [µM] | TGI (UACC-257 melanoma) [µM] | GI50 (HOP-92 NSCLC) [µM] | TGI (HOP-92 NSCLC) [µM] | GI50 (HL-60(TB) leukemia) [µM] | TGI (HL-60(TB) leukemia) [µM] | GI50 (PC-3 prostate) [µM] | TGI (PC-3 prostate) [µM] | GI50 (RXF 393 renal) [µM] | TGI (RXF 393 renal) [µM] | GI50 (NCI-H460 NSCLC) [µM] | TGI (NCI-H460 NSCLC) [µM] | other results
c1cn2cc(-c3ccc4cn[nH]c4c3)nc(Nc3ccc(N4CCOCC4)cc3)c2n1 | 13.7 | 27.4 | 3.26 | 16.6 | 11.9 | 25.3 | 17.5 | > 85.7 | 11.5 | 27.6 | 5.8 | 19.1 | > 100 | > 100 | 14.1 | 28.7 | 2.44 | 13.3 | 11.1 | 24.6 | GI50 (SR leukemia): 5.01 µM; TGI (SR leukemia): 14.5 µM; GI50 (KM12 colon): 0.527 µM; TGI (KM12 colon): 25 µM; GI50 (SW-620 colon): 33.1 µM; TGI (SW-620 colon): > 100 µM
C=CC(=O)N[C@H]1CCOC[C@H]1Nc1ncc2cc(-c3c(Cl)c(OC)cc(OC)c3Cl)ccc2n1 | 28.1 | > 86.7 | 10.6 | 40.2 | 12 | 82.4 | 16.2 | 32.5 | 13.9 | 38.8 | 7.37 | 28.2 | 9.62 | 22.7 | 20.3 | 66.2 | 8.65 | 26.2 | 11.8 | 25.7 | GI50 (SR leukemia): 5.39 µM; TGI (SR leukemia): 19 µM; GI50 (KM12 colon): 19.2 µM; TGI (KM12 colon): 47.7 µM; GI50 (SW-620 colon): 19 µM; TGI (SW-620 colon): > 52.5 µM
